# Measured values from PMC8011931, “Identification, Structure–Activity Relationship, and Biological Characterization of 2,3,4,5-Tetrahydro-1H-pyrido[4,3-b]indoles as a Novel Class of CFTR Potentiators” (Journal of Medicinal Chemistry, 2020).
# Target: F508del-CFTR (Homo sapiens, UniProt P13569, DEL508-508)
# Experiment: HS-YFP-based assay for CFTR activity on F508del-CFTR FRT cells rescued at 32 °C for 24 h
# Assay type: cell-based
# Design: expressed in transfected cells; key to Emax: fold increase in F508del-CFTR rescue relative to hit 3 (normalized)
# Details: for EC50: F508del-CFTR FRT cells rescued at 32 °C for 24 h, plus forskolin; for EC50 / Emax (FRT F508del-CFTR): mean ± SD (n = 3–6), n.a.: not active (up to 20 μM); for Emax: supplementary csv, same data as Tables 1–3; for Emax (FRT F508del-CFTR): normalized for the activity of analogue 3
# Procedure: The chemical library was screened in duplicate on a Fischer rat thyroid (FRT) cell line, stably coexpressing F508del-CFTR and the halide-sensitive yellow fluorescent protein, HS-YFP.[23],[34],[35] To overcome the F508del trafficking defect, cells were initially incubated for 24 h at 32 °C and then acutely treated (15–30 min) with a single compound (5 μM) in combination with forskolin (10 μM). After stimulation, the F508del-CFTR activity in the plasma membrane was calculated by measuring the rate of fluorescence quenching arising from iodide influx.[34] This activity was compared to that of wells containing forskolin alone (negative control) or forskolin plus VX-770 (1 μM, as a positive control) (Figure 2A). Analysis of screening performance with the Z′ method gave a score of 0.6, which can be considered optimal for this type of assay. The activity scores for each compound were then plotted as an ordered distribution (Figure 2B). All compounds whose average activity calculated from the two rounds of screening was greater than 185% with respect to the negative control (i.e., forskolin alone) were considered as primary hits.
# The primary hits were confirmed by testing them at different concentrations, in order to extrapolate the dose–response relationship. First, we focused on the F508del mutant. The compounds were tested in the low micromolar range, in the presence of forskolin (10 μM), on F508del-CFTR FRT cells following rescue of the trafficking defect by low-temperature incubation, as done for the primary screening. The most interesting hits were subsequently tested for their ability to overcome the more severe gating defect of pure class III mutant using FRT cells stably expressing G551D-CFTR (Figure 3B).
# The role of the heteroaryl group (A) acylating the position 2 of the tetrahydro-γ-carboline was initially explored by modifying the substituent on the pyrazolyl residue and replacing the pyrazole with other rings, while keeping the 8-methoxy carboline moiety unmodified. The activity of each compound is described in terms of normalized maximal efficacy (Emax), the maximum fold increase in the rescue of F508del-CFTR activity with respect to hit 3, and potency (EC50), the concentration producing half-maximal efficacy.
# FRT cells stably expressing mutant F508del-CFTR or G551D-CFTR and the halide-sensitive yellow fluorescent protein (HS-YFP) YFP-H148Q/I152L and CFBE41o-cells stably expressing F508del-CFTR and HS-YFP were generated as previously described.[21],[57] FRT cells were cultured using the Coon’s modification of Ham’s F12 medium, while CFBE41o-cells were cultured in the modified Eagle’s medium. Media were supplemented with 10% fetal calf serum, 2 mM L-glutamine, 100 U/mL of penicillin, and […] of streptomycin. For functional assays of CFTR activity based on the HS-YFP assays, CFBE41o- or FRT cells were plated (50,000 cells/well) on clear-bottom 96-well black microplates (Corning Life Sciences, Acton, MA). The following day, cells were assayed. In the case of FRT cells expressing F508del-CFTR, plates were kept at 32 °C (or treated with correctors at 37 °C where indicated) for an additional 24 h to rescue the mutant trafficking defect, before assays.
# Prior assay, cells were washed with phosphate-buffered saline (PBS) containing (in mM) 137 NaCl, 2.7 KCl, 8.1 Na2HPO4, 1.5 KH2PO4, 1 CaCl2, and 0.5 MgCl2. Cells were then incubated for 25 min with 60 μL of PBS plus forskolin (20 μM) and test compounds (at the desired concentration) to stimulate mutant CFTR. Cells were then transferred to microplate readers (FluoStar Optima; BMG Labtech, Offenburg, Germany) for CFTR activity determination. The plate readers were equipped with high-quality excitation (HQ500/20X: 500 ± 10 nm) and emission (HQ535/30M: 535 ± 15 nm) filters for YFP (Chroma Technology). […]
# Chain of F508del-CFTR (P13569 with tags, fused parts or gaps DEL508-508): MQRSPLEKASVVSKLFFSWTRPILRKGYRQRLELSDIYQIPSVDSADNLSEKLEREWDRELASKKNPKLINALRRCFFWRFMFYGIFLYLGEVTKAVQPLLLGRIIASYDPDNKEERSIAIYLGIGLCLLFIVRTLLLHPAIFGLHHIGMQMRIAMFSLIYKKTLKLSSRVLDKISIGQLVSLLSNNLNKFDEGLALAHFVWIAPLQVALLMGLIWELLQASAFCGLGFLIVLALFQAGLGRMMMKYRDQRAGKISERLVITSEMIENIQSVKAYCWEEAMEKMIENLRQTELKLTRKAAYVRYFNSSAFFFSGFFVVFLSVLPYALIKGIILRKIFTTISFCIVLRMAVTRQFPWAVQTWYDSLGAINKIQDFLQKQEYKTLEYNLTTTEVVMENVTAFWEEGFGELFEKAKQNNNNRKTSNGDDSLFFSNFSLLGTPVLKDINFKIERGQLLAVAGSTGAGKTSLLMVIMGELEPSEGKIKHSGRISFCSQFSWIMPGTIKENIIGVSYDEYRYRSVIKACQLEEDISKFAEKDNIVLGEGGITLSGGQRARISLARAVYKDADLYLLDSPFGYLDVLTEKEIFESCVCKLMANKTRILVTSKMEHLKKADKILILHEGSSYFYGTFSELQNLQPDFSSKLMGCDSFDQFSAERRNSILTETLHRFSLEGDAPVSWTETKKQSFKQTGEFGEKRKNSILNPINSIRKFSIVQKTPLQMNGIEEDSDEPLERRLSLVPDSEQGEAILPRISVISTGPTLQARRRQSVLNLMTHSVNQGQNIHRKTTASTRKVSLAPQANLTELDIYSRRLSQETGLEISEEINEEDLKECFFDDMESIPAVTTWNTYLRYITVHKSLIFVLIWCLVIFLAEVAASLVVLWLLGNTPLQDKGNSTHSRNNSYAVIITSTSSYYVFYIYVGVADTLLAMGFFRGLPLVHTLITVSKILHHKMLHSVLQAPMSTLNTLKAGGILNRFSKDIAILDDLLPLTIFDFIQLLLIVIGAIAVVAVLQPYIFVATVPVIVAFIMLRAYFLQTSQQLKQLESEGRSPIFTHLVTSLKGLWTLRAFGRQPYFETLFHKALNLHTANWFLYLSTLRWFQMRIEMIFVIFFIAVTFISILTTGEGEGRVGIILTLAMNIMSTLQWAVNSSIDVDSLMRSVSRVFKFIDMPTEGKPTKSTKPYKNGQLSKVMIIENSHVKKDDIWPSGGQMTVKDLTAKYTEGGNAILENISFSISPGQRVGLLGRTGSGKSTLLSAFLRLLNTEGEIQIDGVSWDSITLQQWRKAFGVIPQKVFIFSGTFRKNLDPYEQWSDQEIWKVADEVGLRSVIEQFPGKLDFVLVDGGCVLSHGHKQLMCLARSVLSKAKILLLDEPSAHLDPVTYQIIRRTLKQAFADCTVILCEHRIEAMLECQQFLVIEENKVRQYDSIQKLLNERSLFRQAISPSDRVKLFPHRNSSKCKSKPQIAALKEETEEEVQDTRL
Structure (SMILES),EC50 [µM],Emax,Emax (FRT F508del-CFTR),"fold drop in potency with respect to 20 (EC50, F508del-CFTR FRT cells) [fold]","fold decrease (drop) in potency with respect to 30 (EC50, F508del-CFTR FRT cells)"
"CC(C)c1ccc2[nH]c3c(c2c1)CN(C(=O)c1cc(C(F)(F)F)[nH]n1)CC3 [Compound 18, (8-Isopropyl-1,3,4,5-tetrahydro-2H-pyrido[4,3-b]indol-2-yl)-(5-(trifluoromethyl)-1H-pyrazol-3-yl)methanone]",1.4 ± 0.9,0.69 ± 0.09,,,
"O=C(c1cc(C(F)(F)F)[nH]n1)N1CCc2[nH]c3ccc(F)cc3c2C1 [Compound 19, (8-Fluoro-1,3,4,5-tetrahydro-2H-pyrido[4,3-b]indol-2-yl)(5-(trifluoromethyl)-1H-pyrazol-3-yl)methanone]",0.48 ± 0.05,0.97 ± 0.11,,,
"O=C(c1cc(C(F)(F)F)[nH]n1)N1CCc2[nH]c3ccc(C(F)(F)F)cc3c2C1 [Compound 21, (8-(Trifluoromethyl)-1,3,4,5-tetrahydro-2H-pyrido[4,3-b]indol-2-yl)-(5-(trifluoromethyl)-1H-pyrazol-3-yl)methanone]",0.44 ± 0.06,0.95 ± 0.04,,,
"O=C(c1cc(C(F)(F)F)[nH]n1)N1CCc2[nH]c3ccc(OC(F)(F)F)cc3c2C1 [Compound 22, (8-(Trifluoromethoxy)-1,3,4,5-tetrahydro-2H-pyrido[4,3-b]indol-2-yl)-(5-(trifluoromethyl)-1H-pyrazol-3-yl)methanone]",0.16 ± 0.03,0.89 ± 0.03,0.89 ± 0.03,,
"CS(=O)(=O)c1ccc2[nH]c3c(c2c1)CN(C(=O)c1cc(C(F)(F)F)[nH]n1)CC3 [Compound 24, (8-(Methylsulfonyl)-1,3,4,5-tetrahydro-2H-pyrido[4,3-b]indol-2-yl)-(5-(trifluoromethyl)-1H-pyrazol-3-yl)methanone]",10.5 ± 2.2,0.28 ± 0.04,,,
"O=C(c1cc(C(F)(F)F)[nH]n1)N1CCc2[nH]c3c(F)cc(C(F)(F)F)cc3c2C1 [Compound 28, (6-Fluoro-8-trifluoromethyl-1,3,4,5-tetrahydro-2H-pyrido[4,3-b]indol-2-yl)-(5-(trifluoromethyl)-1H-pyrazol-3-yl)methanone]",0.57 ± 0.14,0.94 ± 0.13,,6,
"Cc1ccc(F)c2[nH]c3c(c12)CCN(C(=O)c1cc(C(F)(F)F)[nH]n1)CC3 [Compound 38, (7-Fluoro-10-methyl-1,4,5,6-tetrahydroazepino[4,5-b]indol-3(2H)-yl)-(5-(trifluoromethyl)-1H-pyrazol-3-yl)methanone]",2.3 ± 0.3,0.93 ± 0.16,,,38 fold
"Cc1ccc(F)c2[nH]c3c(c12)CN(C(=O)c1cc(C(F)(F)F)[nH]n1)[C@@H](C)C3 [Compound 40, (S)-(6-Fluoro-3,9-dimethyl-1,3,4,5-tetrahydro-2H-pyrido[4,3-b]indol-2-yl)-(5-(trifluoromethyl)-1H-pyrazol-3-yl)methanone]",1.1 ± 0.2,1.31 ± 0.18,1.31 ± 0.18,,

# More lines, in order of falling EC50, values ahead:
EC50 [µM],Emax,Emax (FRT F508del-CFTR),"fold drop in potency with respect to 20 (EC50, F508del-CFTR FRT cells) [fold]","fold decrease (drop) in potency with respect to 30 (EC50, F508del-CFTR FRT cells)",Structure (SMILES)
1.91 ± 0.26,0.79 ± 0.13,0.79 ± 0.13,,,"Cc1ccc(F)c2[nH]c3c(c12)CN(C(=O)c1cc(C(F)(F)F)[nH]n1)C(C)(C)C3 [Compound 34, (6-Fluoro-3,3,9-trimethyl-1,3,4,5-tetrahydro-2H-pyrido[4,3-b]indol-2-yl)-(5-(trifluoromethyl)-1H-pyrazol-3-yl)methanone]"
1.9 ± 0.2,0.75 ± 0.11,,,,"N#Cc1ccc2[nH]c3c(c2c1)CN(C(=O)c1cc(C(F)(F)F)[nH]n1)CC3 [Compound 23, 2-(5-(Trifluoromethyl)-1H-pyrazole-3-carbonyl)-2,3,4,5-tetrahydro-1H-pyrido[4,3-b]indole-8-carbonitrile]"
1.14 ± 0.13,1.0 ± 0.08,,,,"Cc1cccc2c3c([nH]c12)CCN(C(=O)c1cc(C(F)(F)F)[nH]n1)C3 [Compound 17, (6-Methyl-1,3,4,5-tetrahydro-2H-pyrido[4,3-b]indol-2-yl)-(5-(trifluoromethyl)-1H-pyrazol-3-yl)methanone]"
0.94 ± 0.25,0.65 ± 0.08,,,more than 15 fold,"Cc1ccc(F)c2c3c([nH]c12)CCN(C(=O)c1cc(C(F)(F)F)[nH]n1)C3 [Compound 31, (9-Fluoro-6-methyl-1,3,4,5-tetrahydro-2H-pyrido[4,3-b]indol-2-yl)(5-(trifluoromethyl)-1H-pyrazol-3-yl)methanone]"
0.23 ± 0.08,0.70 ± 0.02,,,,"Cc1cc(F)c2[nH]c3c(c2c1)CN(C(=O)c1cc(C(F)(F)F)[nH]n1)CC3 [Compound 26, (6-Fluoro-8-methyl-1,3,4,5-tetrahydro-2H-pyrido[4,3-b]indol-2-yl)-(5-(trifluoromethyl)-1H-pyrazol-3-yl)methanone]"
0.15 ± 0.07,0.66 ± 0.12,,,,"O=C(c1cc(C(F)(F)F)[nH]n1)N1CCc2[nH]c3c(F)cc(F)cc3c2C1 [Compound 27, (6,8-Difluoro-1,3,4,5-tetrahydro-2H-pyrido[4,3-b]indol-2-yl)-(5-(trifluoromethyl)-1H-pyrazol-3-yl)methanone]"
